According to patent US20240208998A1, “COMPOUNDS FOR USE IN THE TREATMENT OF HYPERPROLIFERATIVE DISORDERS” (FUNDACIÓ PRIVADA INSTITUT D'INVESTIGACIÓ ONCOLÓGICA DE VALL …, priority 2021, published 2024):

Experiments:
TET2 = TET2 (Homo sapiens (Human), UniProt Q6N021); assay: Determination of TET2 activity in cell (5-hmC dot-blot, TET2-transfected HEK293T cells); format: cell-based; details: 10 μM compound, HEK293T transfected with pCMV6-TET2, 48 h after transfection; in reference to vehicle, corrected with example 1 condition
Method: The HEK293T cell line was grown in Dulbecco's Modified Eagle Medium (DMEM) containing 10% (v/v) fetal bovine serum (FBS) and 1% (v/v) penicillin-streptomycin (P/S).
Twenty-four hours prior transfection, 3×10^6 HEK293T cells were seeded in p100 dishes previously coated with 0.001% of poly (1-lysine). One hour before transfection, a 10 μM solution of each compound was prepared in complete medium and 9 mL was added by medium replacement in one p100 dish (by duplicate). A solution of complete medium with DMSO was used as a vehicle control. Then, a transfection mix was prepared diluting 8 μg of pCMV6-TET2 expression vector (ID: RC226438, Origene) with 32 μg of polyethylenimine (PEI 25000, Polysciences, Inc.) in a 150 mM NaCl solution per p100 plate. After 15 min of incubation at rt, 1 mL of the transfection mix was added to each p100 plate. Next day, medium was replaced with a fresh diluted compound solution (10 mL/p100 dish). Forty-eight hours after transfection, cells were trypsinized and pelleted. Each pellet was suspended in 500 μL of DNA lysis buffer (50 mM Tris-HCl pH 8, 10 mM EDTA pH 8, 0.1% Triton X-100, 0.5% Tween-20, 400 μg/mL Proteinase K, 50 μg/mL RNAse), and incubated overnight at 56° C. in a thermal mixer. Next day, genomic DNA (gDNA) was extracted from each sample following a standard phenol-chloroform extraction method.
For each sample, 2 μg of gDNA was diluted in 50 μL of H2O. Then, 50 μL of 2X Denature solution (0.8 M NaOH, 20 mM EDTA) was added to each sample and incubated at 95° C. for 10 min. Samples were immediately placed on ice to cool and mixed with 100 μL of cold 2X Neutralize buffer (2 M ammonium acetate pH 7). Then, samples were incubated on ice for 10 min. DNA two-fold serial dilutions were prepared by mixing 100 μL of each sample with 100 μL of H2O in the next well, and so on. A total of 7 serial dilutions were set up. One hundred microliters of each sample and their respective dilutions were spotted on a positively charged nylon membrane (Amersham Hybond-N+, GE healthcare) in an assembled Bio-Dot apparatus (Bio-Rad). Samples were washed adding 400 μL of 0.4 M NaOH in each well. Then, blotted membrane was removed from the Bio-Dot apparatus and washed with 2×SSC buffer (0.3 M NaCl, 30 mM sodium citrate) for 5 min, air dried for 15 min, and UV-crosslinked (energy 120,000 μJ/cm^2) for 1 min. Afterwards, the blotted membrane was blocked with Blocking solution (5% non-fat milk, 0.1% Tween-20 in PBS1X) for 1 h at rt. Then, the membrane was incubated with the 5-hmC (5-hydroxymethylcytosine) primary antibody (#39769, Active Motif) diluted 1/10,000 in Blocking solution for 1 h at rt. Next, membrane was washed three times for 5 min in PBS1X and incubated with the anti-rabbit-HRP secondary antibody diluted 1/5,000 in blocking solution for 1 h at rt. Finally, the membrane was washed three times for 5 min in PBS1X, developed with SuperSignal West Pico Chemiluminescent Substrate (ThermoFisher Scientific), and exposed to autoradiography films (Fujifilm).
Each dot-blot membrane allows the evaluation of up to 6 different conditions (in duplicate) at the same time. Among these 6 different conditions there is always the condition of the vehicle and our compound of example 1, so in the end we evaluated 4 new compounds per membrane. The density intensity of each dot was quantified using the Image J software. […] Fold-change was calculated in reference to the vehicle condition and corrected with the example 1 condition for each dot-blot membrane.

SMILES | melting point | Fold change (amount of 5-hmC) (TET2)
Cc1[nH]c2ccccc2c1-c1nc(NC(=O)Cc2cn3ccsc3n2)sc1C [Example 4, 2-(imidazo[2,1-b]thiazol-6-yl)-N-[5-methyl-4-(2-methyl-1H-indol-3-yl)thiazol-2-yl]acetamide] | 169 to 172 °C | 9.2
Cc1[nH]c2ccccc2c1-c1csc(NC(=O)Cc2c[nH]c3ccc(F)cc23)n1 [Example 12, 2-(5-fluoro-1H-indol-3-yl)-N-[4-(2-methyl-1H-indol-3-yl)thiazol-2-yl]acetamide] | 230 to 232 °C | 16.0
Cc1[nH]c2ccccc2c1-c1csc(NC(=O)Cc2c[nH]c3ccccc23)n1 [Example 13, 2-(1H-indol-3-yl)-N-[4-(2-methyl-1H-indol-3-yl)thiazol-2-yl]acetamide] | 246 to 248 °C | 11.6
Cc1[nH]c2ccccc2c1-c1csc(NC(=O)Cc2cc(Br)cs2)n1 [Example 19, 2-(4-bromothiophen-2-yl)-N-[4-(2-methyl-1H-indol-3-yl)thiazol-2-yl]acetamide] | 212 to 214 °C | 8.4
Cc1[nH]c2ccccc2c1-c1csc(NC(=O)Cc2c[nH]c3ccc(O)cc23)n1 [Example 21, 2-(5-hydroxy-1H-indol-3-yl)-N-[4-(2-methyl-1H-indol-3-yl)thiazol-2-yl]acetamide] | 145 to 149 °C | 15.3
